Test results as given in patent US11845748B2, “Bicyclic pyridine N-oxide derivatives useful as a factor XIa inhibitors” (Janssen Pharmaceutica NV, priority 2021, dated 2023).

Target: Factor XIa (Homo sapiens, UniProt P03951)
Experiment: Factor XIa inhibition assay utilizing a fluorophore-quencher pair peptide substrate (FLINT)
Type: biochemical
Settings: end point read at 30 min; 30 min preincubation; 5Fam-KLTRAETV-K5Tamra substrate; read-out: FXIa (EP) IC50
Description: Biological Example 1: Factor XIa Inhibition Assay Utilizing a Fluorophore-Quencher Pair Peptide Substrate
A fluorescence intensity (FLINT) based assay was used to monitor inhibition of Factor XIa. The peptide substrate, 5Fam-KLTRAETV-K5Tamra (purchased from New England Peptide) was chosen based on the […]. Conversion of zymogen […]. The custom peptide used in this assay was based on the Arg146 cleavage site of FXI. The peptide substrate was designed with a fluorophore-quencher pair, where the fluorescence is quenched until FXIa cleaves the 8-mer peptide after the Arg residue. The substrate KM was fit to a substrate inhibition model whereby kcat=0.86 s^−1, KM=12.4 μM, Ki=61.6 μM with an enzymatic efficiency, and kcat/KM=69523 M^−1s^−1.
The Factor XIa FLINT assay was used with the following 5Fam-KLTRAETV-K5Tamra assay buffer: 50 mM Tris, pH 7.5, 100 mM NaCl, 5 mM CaCl2, 0.1 mg/mL BSA, 0.03% CHAPS. Assay buffer was prepared by mixing all ingredients fresh. 5Fam-KLTRAETV-K5Tamra peptide substrate was first prepared at 10 mM in 100% DMSO, then diluted to 3 mM in 100% DMSO. Assay buffer was then added directly to the 3 mM stock of substrate to prepare the 30 μM 2× working concentration (15 μM final concentration). The 2× Factor XIa stock solution was prepared by diluting 6.562 μM stock in 1× assay buffer for a 200 pM working stock solution (100 pM final concentration).
Test compound(s) were run in an 11-point, 3-fold serial dilution with a final top compound concentration of 100 nM. Final DMSO in assay was 2%. FXIa was preincubated with compound for 30-minutes and then substrate was added to initiate the reaction. The assay was run with either end point (EP) reads at 30 min or kinetic (KIN) reads at 5 min intervals over 30 minutes. The time course was linear using 100 μM FXIa greater than 30 minutes. More specifically, the assay was run as follows: • 100 nL of 0.01 mM test compound was dispensed into black 384-well non-binding Greiner BioOne 784900 plate for 0.1 μM final concentration; • 5 μL of 1× assay buffer was dispensed to column 24 (low control) and 5 μL 2× Factor XIa solution was dispensed to columns 1-23 (column 23 high control); • the plate was centrifuged with a “cover” plate at 500 rpm for 1 min the plate was pre-incubated for 30 minutes at room temperature with plate covered; • 5 μL of 2× 5Fam-KLTRAETV-K5Tamra peptide substrate was dispensed into the entire plate, columns 1-24; • the plate was centrifuged with a “cover” plate at 500 rpm for 1 min; • the plate was read monitoring fluorescence intensity on the BMG PHERAStar at room temperature, using fluorescence module 485 nm/520 nm.
Percent inhibition (IC50) curves were generated per compound tested, and data was analyzed using a 4-parameter logistic fit using GeneData Screener. The relative fluorescence unit (RFU) values were normalized to percent inhibition using the following equation: % inhibition=((HC−LC)−(compound−LC)/(HC−LC))*100 where LC—low control=mean signal of no Factor XIa or 100% inhibition of Factor XIa; HC—high control=mean signal of Factor XIa+5Fam-KLTRAETV-K5Tamra peptide substrate with DMSO only.
An 11-point dose response curve for the test compound(s) was generated using GENDATA to determine IC50 value based on the following equation: Y=Bottom+(Top−Bottom)/(1+10^((log IC50−X)*HillSlope))
where Y is the % inhibition in the presence of X inhibitor concentration, Top=high control=mean signal of Factor XIa+5Fam-KLTRAETV-K5Tamra peptide substrate with DMSO only; Bottom=low control−mean signal of no Factor XIa or 100% inhibition of Factor XIa; HillSlope—Hill coefficient; and IC50=concentration of compound with 50% inhibition in relation to top/high control. […]

Sequence of Factor XIa (P03951 388-625 limits assumed): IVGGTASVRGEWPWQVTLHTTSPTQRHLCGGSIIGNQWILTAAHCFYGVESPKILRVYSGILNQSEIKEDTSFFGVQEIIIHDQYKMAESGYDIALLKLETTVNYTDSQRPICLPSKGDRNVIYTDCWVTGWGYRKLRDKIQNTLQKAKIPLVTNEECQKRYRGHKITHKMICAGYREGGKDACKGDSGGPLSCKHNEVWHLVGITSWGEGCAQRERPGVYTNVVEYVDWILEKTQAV
Sequence of Factor XIa (P03951 19-387 partner limits assumed): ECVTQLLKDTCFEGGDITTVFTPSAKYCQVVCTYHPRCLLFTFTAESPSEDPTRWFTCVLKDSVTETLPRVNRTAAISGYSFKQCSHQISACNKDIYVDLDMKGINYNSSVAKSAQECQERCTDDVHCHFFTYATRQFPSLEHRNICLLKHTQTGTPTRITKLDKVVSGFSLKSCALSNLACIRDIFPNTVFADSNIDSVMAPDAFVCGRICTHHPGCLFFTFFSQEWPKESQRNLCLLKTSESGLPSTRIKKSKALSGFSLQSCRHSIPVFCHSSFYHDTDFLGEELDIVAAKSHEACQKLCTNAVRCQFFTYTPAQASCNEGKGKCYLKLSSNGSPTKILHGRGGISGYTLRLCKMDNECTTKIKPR

IC50	SMILES
320 nM	O=C(O)c1ccc(-c2ccn(C3CCc4cc(-c5cc(Cl)ccc5-n5cnnn5)c[n+]([O-])c43)n2)cc1 (racemic) [ID No. 3, 7-(3-(4-Carboxyphenyl)-1H-pyrazol-1-yl)-3-(5-chloro-2-(1H-tetrazol-1-yl)phenyl)-6,7-dihydro-5H-cyclopenta[b]pyridine 1-oxide]
11 nM	Nc1ccc(-c2cnn(C3CCc4cc(-c5c(-n6cnnn6)ccc(Cl)c5F)c[n+]([O-])c43)c2)c(F)n1 (racemic) [ID No. 11, 7-(4-(6-Amino-2-fluoropyridin-3-yl)-1H-pyrazol-1-yl)-3-(3-chloro-2-fluoro-6-(1H-tetrazol-1-yl)phenyl)-6,7-dihydro-5H-cyclopenta[b]pyridine 1-oxide]
220 nM	Nc1ccc(-c2cnn(C3CCc4cc(-c5cc(Cl)ccc5-n5cnnn5)c[n+]([O-])c43)c2)cc1 (racemic) [ID No. 12, 7-(4-(4-Aminophenyl)-1H-pyrazol-1-yl)-3-(5-chloro-2-(1H-tetrazol-1-yl)phenyl)-6,7-dihydro-5H-cyclopenta[b]pyridine 1-oxide]
16 nM	COC(=O)Nc1ccc(-c2cn(C3CCc4cc(-c5c(-n6cnnn6)ccc(Cl)c5F)c[n+]([O-])c43)nc2C)cc1 (single isomer, unassigned) [ID No. 14, (S*)-3-(3-Chloro-2-fluoro-6-(1H-tetrazol-1-yl)phenyl)-7-(4-(4-((methoxycarbonyl)amino)phenyl)-3-methyl-1H-pyrazol-1-yl)-6,7-dihydro-5H-cyclopenta[b]pyridine 1-oxide]
3 nM	COC(=O)Nc1ccc(-c2cnn([C@@H]3CCc4cc(-c5c(-n6cnnn6)ccc(Cl)c5F)c[n+]([O-])c43)c2)cc1 [ID No. 9, (R)-3-(3-chloro-2-fluoro-6-(1H-tetrazol-1-yl)phenyl)-7-(4-(4-((methoxycarbonyl)amino)phenyl)-1H-pyrazol-1-yl)-6,7-dihydro-5H-cyclopenta[b]pyridine 1-oxide]

The next lines start with the molecule.

SMILES	IC50
O=C(O)c1cccc(-c2ccn(C3CCc4cc(-c5cc(Cl)ccc5-n5cnnn5)c[n+]([O-])c43)n2)c1 (racemic) [ID No. 4, 7-(3-(3-Carboxyphenyl)-1H-pyrazol-1-yl)-3-(5-chloro-2-(1H-tetrazol-1-yl)phenyl)-6,7-dihydro-5H-cyclopenta[b]pyridine 1-oxide]	1010 nM
COC(=O)Nc1ccc(-c2ccn(C3CCc4cc(-c5cc(Cl)ccc5-n5cnnn5)c[n+]([O-])c43)n2)cc1 (racemic) [ID No. 5, 3-(5-Chloro-2-(1H-tetrazol-1-yl)phenyl)-7-(3-(4-((methoxycarbonyl)amino)phenyl)-1H-pyrazol-1-yl)-6,7-dihydro-5H-cyclopenta[b]pyridine 1-oxide]	109 nM
O=C(O)c1cccc(-c2cnn(C3CCc4cc(-c5cc(Cl)ccc5-n5cnnn5)c[n+]([O-])c43)c2)c1 (racemic) [ID No. 6, 7-(4-(3-Carboxyphenyl)-1H-pyrazol-1-yl)-3-(5-chloro-2-(1H-tetrazol-1-yl)phenyl)-6,7-dihydro-5H-cyclopenta[b]pyridine 1-oxide]	79 nM
COC(=O)Nc1ccc(-c2cnn(C3CCc4cc(-c5cc(Cl)ccc5-n5cnnn5)c[n+]([O-])c43)c2)cc1 (racemic) [ID No. 7, 3-(5-Chloro-2-(1H-tetrazol-1-yl)phenyl)-7-(4-(4-((methoxycarbonyl)amino)phenyl)-1H-pyrazol-1-yl)-6,7-dihydro-5H-cyclopenta[b]pyridine 1-oxide]	9 nM
Nc1ccc(-c2cnn(C3CCc4cc(-c5cc(Cl)ccc5-n5cnnn5)c[n+]([O-])c43)c2)c(F)n1 (racemic) [ID No. 10, 7-(4-(6-Amino-2-fluoropyridin-3-yl)-1H-pyrazol-1-yl)-3-(5-chloro-2-(1H-tetrazol-1-yl)phenyl)-6,7-dihydro-5H-cyclopenta[b]pyridine 1-oxide]	27 nM
COC(=O)Nc1ccc(-c2cnn(C3CCc4cc(-c5cc(Cl)ccc5OCC(F)(F)F)c[n+]([O-])c43)c2)cc1 (racemic) [ID No. 15, 3-(5-Chloro-2-(2,2,2-trifluoroethoxy)phenyl)-7-(4-(4-((methoxycarbonyl)amino)phenyl)-1H-pyrazol-1-yl)-6,7-dihydro-5H-cyclopenta[b]pyridine 1-oxide]	1690 nM
COC(=O)Nc1ccc(-c2cnn(C3CCc4cc(-c5c(-n6cnnn6)ccc(Cl)c5F)c[n+]([O-])c43)c2)cc1 (single isomer, unassigned) [ID No. 8, (R*)3-(3-Chloro-2-fluoro-6-(1H-tetrazol-1-yl)phenyl)-7-(4-(4-((methoxycarbonyl)amino)phenyl)-1H-pyrazol-1-yl)-6,7-dihydro-5H-cyclopenta[b]pyridine 1-oxide]	3260 nM
COC(=O)Nc1ccc(-c2cn(C3CCc4cc(-c5c(-n6cnnn6)ccc(Cl)c5F)c[n+]([O-])c43)nc2C)cc1 (single isomer, unassigned) [ID No. 13, (R*)3-(3-Chloro-2-fluoro-6-(1H-tetrazol-1-yl)phenyl)-7-(4-(4-((methoxycarbonyl)amino)phenyl)-3-methyl-1H-pyrazol-1-yl)-6,7-dihydro-5H-cyclopenta[b]pyridine 1-oxide]	837 nM
O=C(O)c1ccc2nn(C3CCc4cc(-c5cc(Cl)ccc5-n5cnnn5)c[n+]([O-])c43)cc2c1 (centres unmarked) [ID No. 1, 7-(5-Carboxy-2H-indazol-2-yl)-3-(5-chloro-2-(1H-tetrazol-1-yl)phenyl)-6,7-dihydro-5H-cyclopenta[b]pyridine 1-oxide]	2850 nM
